# Data taken from patent US20240148821A1, “PHARMACEUTICAL USE OF CYCLIC PEPTIDE COMPOUND” (CHUGAI SEIYAKU KABUSHIKI KAISHA, priority 2021, published 2024).
# pIC50: −log10 of the molar value. Numbered stars: 1 amine (or outer) side, 2 acyl side, 3 side chain; on linkers, the order of the positions; unused ones are H or OH. Bridge positions count the residues as written; N and C are the ends. Square brackets hold non-standard residues; d marks the D form. Peptide text beside a SMILES is read from it. * marks the point of attachment. hPhe(3-Cl-4-CF3) = N[C@@H](CCc1ccc(C(F)(F)F)c(Cl)c1)C(=O)O; hPhe(3-F,4-CF3) = N[C@@H](CCc1ccc(C(F)(F)F)c(F)c1)C(=O)O; NMePhe(4-CF3) = CN[C@@H](Cc1ccc(C(F)(F)F)cc1)C(=O)O; hPhe(4-CF3) = N[C@@H](CCc1ccc(C(F)(F)F)cc1)C(=O)O; Thiomorpholino(1,1-dioxo) = O=S1(=O)CCN(*)CC1; NMePhe(3-F) = CN[C@@H](Cc1cccc(F)c1)C(=O)O; NMedβ3hAla = C[C@H](CC(=O)[*:2])N(C)[*:1]; NMeGly(cPent) = CN[C@H](C(=O)O)C1CCCC1; NMeAla(cPr) = CN[C@@H](CC1CC1)C(=O)O; Phe(2-F) = N[C@@H](Cc1ccccc1F)C(=O)O; NMeY = CN[C@@H](Cc1ccc(O)cc1)C(=O)O; NMeCha = CN[C@@H](CC1CCCCC1)C(=O)O; NMeChg = CN[C@H](C(=O)O)C1CCCCC1; NMeI = CC[C@H](C)[C@H](NC)C(=O)O; NMeD = CN[C@@H](CC(=O)O)C(=O)O; NMeL = CN[C@@H](CC(C)C)C(=O)O; NMeV = CN[C@H](C(=O)O)C(C)C; d(β3hA) = C[C@@H](N)CC(=O)O; NMeS = CN[C@@H](CO)C(=O)O; NMeA = CN[C@@H](C)C(=O)O; NMeAib = CNC(C)(C)C(=O)O; Nle = CCCC[C@H](N)C(=O)O; Piperidide = C1CCN(*)CC1; Ac5c = NC1(C(=O)O)CCCC1; Aze = O=C(O)[C@@H]1CCN1; CH2CMe2OH = CC(C)(O)C*; Aib = CC(C)(N)C(=O)O; Isopentyl = CC(C)CC*; NEtG = CCNCC(=O)O; Sar = CNCC(=O)O
# Tested on: Human pancreatic cancer cell line AsPC-1 (G12D mutation Kras)
# Assay: AsPC-1 cell growth inhibition (AsPC-1 CGI)
# Type: cell-based
# Settings: read-out: AsPC-1 cell growth inhibition, 50% growth inhibitory concentration (IC50 value); 96 hours, CellTiter-Glo, values classified in ranges
# Description: Test compounds were serially dilated with dimethyl sulfoxide, and 200 nL was then dispensed to a U-bottom 96-well plate using Labcyte Echo. […] The cell suspension was dispensed to a. plate containing a test compound at 100 μL per well and incubated at 37° C. in a 5% carbon dioxide gas incubator. 96 hours later, 80 μL of CellTiter-Glo (Promega) was added to each well and fluorescence was measured.
row,SMILES,pIC50
1,CC[C@H](C)[C@@H]1NC(=O)[C@H](C)N(C)C(=O)C[C@@H](C(=O)N2CCCCC2)N(C)C(=O)[C@H](C(C)C)N(C)C(=O)C2(CCCC2)NC(=O)[C@H](Cc2cccc(F)c2)N(C)C(=O)[C@H](CCc2ccc(C(F)(F)F)c(Cl)c2)NC(=O)CN(C)C(=O)[C@H](CC2CCCCC2)N(C)C(=O)CN(C)C(=O)CN(C)C1=O [Compound 945] ([NMeA]I[Sar][Sar][NMeCha][Sar][hPhe(3-Cl-4-CF3)][NMePhe(3-F)][Ac5c][NMeV][NMeD]-Piperidide; lactam N-11),< 6.30
2,CCCC[C@@H]1NC(=O)[C@H](Cc2ccccc2F)NC(=O)CN(C)C(=O)[C@H](Cc2ccc(OC)cc2)N(C)C(=O)CN(C)C(=O)CN(C)C(=O)[C@H]([C@@H](C)CC)NC(=O)[C@H](CC(C)C)N(C)C(=O)C[C@@H](C(=O)N2CCCCC2)N(C)C(=O)[C@H](CC(C)C)NC(=O)[C@H](Cc2ccc(OC)cc2)N(C)C1=O [Compound 681] ([NMeL]I[Sar][Sar][NMeY](Me)[Sar][Phe(2-F)][Nle][NMeY](Me)L[NMeD]-Piperidide; lactam N-11),< 6.30
3,CCCC[C@@H]1NC(=O)[C@H](CC(C)C)N(C)C(=O)C[C@@H](C(=O)N2CCCCC2)N(C)C(=O)[C@H](C2CCCCC2)N(C)C(=O)C2(CCCC2)NC(=O)[C@@H]2CCCN2C(=O)[C@H](CCc2ccc(C(F)(F)F)c(Cl)c2)NC(=O)CN(C)C(=O)[C@H](CC2CCCCC2)N(C)C(=O)CN(C)C(=O)CN(C)C1=O [Compound 1723] ([NMeL][Nle][Sar][Sar][NMeCha][Sar][hPhe(3-Cl-4-CF3)]P[Ac5c][NMeChg][NMeD]-Piperidide; lactam N-11),< 6.30
4,CC[C@H](C)[C@@H]1NC(=O)[C@H](CC(C)C)N(C)C(=O)C[C@@H](C)NC(=O)[C@H](C(C)C)N(C)C(=O)C2(CCCC2)NC(=O)[C@@H]2CCCN2C(=O)[C@H](CCc2ccc(C(F)(F)F)c(Cl)c2)NC(=O)CN(C)C(=O)[C@H](CC2CC2)N(C)C(=O)CN(C)C(=O)CN(C)C1=O [Compound 511] (cyclo([Ac5c][NMeV][d(β3hA)][NMeL]I[Sar][Sar][NMeAla(cPr)][Sar][hPhe(3-Cl-4-CF3)]P)),< 6.30
5,CC[C@H](C)[C@@H]1NC(=O)[C@H](CC(C)C)N(C)C(=O)C[C@@H](C(=O)N(C)C)N(C)C(=O)[C@H]([C@@H](C)CC)N(C)C(=O)C2(CCCC2)NC(=O)[C@@H]2CCCN2C(=O)[C@H](CCc2ccc(C(F)(F)F)c(Cl)c2)NC(=O)CN(C)C(=O)[C@H](CC2CCCCC2)N(C)C(=O)CN(C)C(=O)CN(C)C1=O [Compound 1865] ([NMeL]I[Sar][Sar][NMeCha][Sar][hPhe(3-Cl-4-CF3)]P[Ac5c][NMeI][NMeD]-NMe2; lactam N-11),≥ 7.70
6,CC[C@H](C)[C@@H]1NC(=O)[C@H](CC(C)C)N(C)C(=O)C[C@@H](C(=O)N2CCCCC2)N(C)C(=O)[C@H](CC(C)C)N(C)C(=O)C(C)(C)NC(=O)[C@H](COCC(C)(C)O)N(C)C(=O)[C@H](CCc2ccc(C(F)(F)F)cc2)NC(=O)CN(C)C(=O)[C@H](COCCC(C)C)N(C)C(=O)CN(C)C(=O)CN(CC)C1=O [Compound 1528] ([NMeL]I[NEtG][Sar][NMeS](Isopentyl)[Sar][hPhe(4-CF3)][NMeS](CH2CMe2OH)[Aib][NMeL][NMeD]-Piperidide; lactam N-11),< 6.30
7,"CC[C@H](C)[C@@H]1NC(=O)[C@H](CC(C)C)N(C)C(=O)C[C@@H](C(=O)N2CCCCC2)N(C)C(=O)[C@H](C2CCCC2)N(C)C(=O)C2(CCCC2)NC(=O)[C@@H]2CCCN2C(=O)[C@H](CCc2ccc(C(F)(F)F)c(F)c2)NC(=O)CN(C)C(=O)[C@H](C2CCCC2)N(C)C(=O)[C@@H]2CCN2C(=O)[C@H](C)N(C)C1=O [Compound 1099] ([NMeL]I[NMeA][Aze][NMeGly(cPent)][Sar][hPhe(3-F,4-CF3)]P[Ac5c][NMeGly(cPent)][NMeD]-Piperidide; lactam N-11)",≥ 7.70
8,"CC[C@H](C)[C@@H]1NC(=O)[C@H](CC(C)C)N(C)C(=O)C[C@@H](C(=O)N2CCS(=O)(=O)CC2)N(C)C(=O)[C@H](C(C)C)N(C)C(=O)C2(CCCC2)NC(=O)[C@@H]2CCCN2C(=O)[C@H](CCc2ccc(C(F)(F)F)c(Cl)c2)NC(=O)CN(C)C(=O)[C@H](CC2CCCCC2)N(C)C(=O)[C@@H]2CCN2C(=O)[C@H](C)N(C)C1=O [Compound 1238] ([NMeL]I[NMeA][Aze][NMeCha][Sar][hPhe(3-Cl-4-CF3)]P[Ac5c][NMeV][NMeD]-{Thiomorpholino(1,1-dioxo)}; lactam N-11)",< 6.30
9,CC[C@H](C)[C@@H]1NC(=O)[C@H](C)N(C)C(=O)C[C@@H](C)N(C)C(=O)[C@H](CC(C)C)NC(=O)C(C)(C)N(C)C(=O)[C@H](CC(C)C)NC(=O)[C@H](CCc2ccc(C(F)(F)F)c(Cl)c2)NC(=O)CN(C)C(=O)[C@H](Cc2ccc(C(F)(F)F)cc2)N(C)C(=O)[C@@H]2CCN2C(=O)CN(C)C1=O [Compound 1392] (cyclo([Aze][NMePhe(4-CF3)][Sar][hPhe(3-Cl-4-CF3)]L[NMeAib]L[NMedβ3hAla][NMeA]I[Sar])),< 6.30
